Assay results reported in ChEMBL document CHEMBL1127999, “Diphenylborinic acid is a strong inhibitor of serine proteases” (Bioorg Med Chem Lett, 1994).

Legend:
Chymotrypsinogen A = Chymotrypsinogen A (Bos taurus, UniProt P00766)
Description: Compound was tested for the inhibition of chymotrypsin

Serine protease 1 = target: T1, Serine protease 1 (Bos taurus, UniProt P00760)
T1 sequence (P00760 whole entry): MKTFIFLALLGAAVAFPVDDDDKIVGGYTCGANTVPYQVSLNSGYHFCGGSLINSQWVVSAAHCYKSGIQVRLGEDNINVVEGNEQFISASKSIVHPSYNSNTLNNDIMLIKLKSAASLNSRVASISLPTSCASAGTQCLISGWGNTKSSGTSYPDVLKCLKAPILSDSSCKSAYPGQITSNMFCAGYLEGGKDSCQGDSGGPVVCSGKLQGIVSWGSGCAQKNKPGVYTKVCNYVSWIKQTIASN
Description: Compound was tested for the inhibition of trypsin

Description for physchem: Dissociation constant of compound was determined

With CB(O)c1ccccc1 [PHENYL METHYL BORINIC ACID] the Ki (Chymotrypsinogen A) was 0.03 mM and the pKa (physchem) was 8.1.
OB(O)c1ccccc1 [PHENYLBORONIC ACID] showed a pKa of 8.85 and a Ki (Serine protease 1) of 10.2 mM.
